Here are results for seven compounds from ChEMBL document CHEMBL1201862, “PubChem BioAssay data set” (2004).

Common to all, as to experiment: inhibition of tumour cell growth, NCI panel, 48 h
Test [1] concerns LOX IMVI.
Test [2] has as its system PC-3.
Test [3] relates to SF-539.
Test [4] deals with OVCAR-8.
The test system of test [5] is NCI/ADR-RES.
In test [6] the test system is HCT-116.
For test [7], the system named is MCF7.
In test [8] the test system is RPMI-8226.
Test [9] has as its system HOP-92.
In test [10] the test system is OVCAR-4.
The subject of test [11] is TK-10.
Test [12] has as its system MDA-N.
For test [13], the system named is K562.
The subject of test [14] is ACHN.
For test [15], the system named is NCI-H460.
The test system of test [16] is UACC-257.
The subject of test [17] is OVCAR-3.
Test [18] has as its system SK-MEL-5.
Test [19] has as its system EKVX.
Test [20] relates to SK-MEL-28.

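Dose response: 5 concentrations. Exposure: 48 h. Format: 96-well plates. Endpoint: linear interpolation; highest concentration if not reached. GI50 = concentration required for 50% inhibition of growth.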 Calls of active or inactive are those of the source. Rule as the data show it: active = GI50 up to about 1.1 µM and inactive = higher.

For `COC1=CC(=O)c2c(c(COP(=O)(N(C)CCBr)N(C)CCBr)cn2C)C1=O`, the GI50 is 0.194 µM (active) in test [1]; 0.643 µM (active) in test [2]; < 0.0114 µM (active) in test [3]; < 0.0264 µM (active) in test [4]; 0.134 µM (active) in test [5]; < 0.01 µM (active) in test [6]. Besides, the GI50 was < 0.01 µM (active) in [7]; 0.0323 µM (active) in test [8]; 0.107 µM (active) in [9]; 1.33 µM (inactive) in test [10]; 0.17 µM (active) in test [11]; 0.109 µM (active) in test [12]. For the same compound, the GI50 in [13] was 0.0398 µM (active); in [14], < 0.01 µM (active); in [15] it was < 0.01 µM (active); in test [16], 0.258 µM (active); in [17] it was 0.226 µM (active); in test [18] it was 0.0836 µM (active). Also, the GI50 in test [19] was 0.211 µM (active); in test [20], 0.141 µM (active).

For `O=[N+]([O-])c1ccc(CSc2c3ccccc3nc3ccccc23)cc1`, the GI50 is 2.93 µM (inactive) in [1]; 7.43 µM (inactive) in test [2]; 2.47 µM (inactive) in test [3]; 3.33 µM (inactive) in test [4]; 18 µM (inactive) in test [5]; 2.78 µM (inactive) in test [6]. For the same compound, the GI50 in test [7] was 2.51 µM (inactive); in test [8], 2.85 µM (inactive); in [9], 3.75 µM (inactive); in test [10], 15.6 µM (inactive); in test [11] it was 6.62 µM (inactive); in test [12] it was 9.86 µM (inactive). Moreover, the GI50 in [13] was 5.01 µM (inactive); in test [14], 3.37 µM (inactive); in test [15] it was 20.6 µM (inactive); in [16], 3.33 µM (inactive); in [17] it was 4.53 µM (inactive); in test [18] it was 16.7 µM (inactive). Also, the figures for the GI50 in test [19] and in [20] were 15.9 µM (inactive) and 4.67 µM (inactive), respectively.

Regarding `Oc1ccc(Cl)cc1/C=N/c1cnc2ccccc2c1`, the GI50 was 8.17 µM (inactive) in test [1]; 14.3 µM (inactive) in test [2]; 13.4 µM (inactive) in [3]; 27 µM (inactive) in [4]; 27.7 µM (inactive) in [5]; 11.3 µM (inactive) in test [6]. Moreover, the GI50 in test [7] is 22.6 µM (inactive); in test [8], 13.1 µM (inactive); in test [9] it was 28.1 µM (inactive); in test [10], 27.4 µM (inactive); in test [11], > 100 µM (inactive); in test [12], 34.7 µM (inactive). Further, the GI50 in test [13] is 10.2 µM (inactive); in test [14] it was > 57.1 µM (inactive); in test [15], 33.7 µM (inactive); in test [16], 5.01 µM (inactive); in test [17] it was 14.5 µM (inactive); in test [18] it was 27.5 µM (inactive). Also, the GI50 in test [19] was 29.7 µM (inactive); in [20], > 68.9 µM (inactive).

`O=C1C=C(NCCc2cc(Br)c(O)c(Br)c2)C(=O)c2[nH]cnc21`: the GI50 is 21.5 µM (inactive) in test [1]; 3.69 µM (inactive) in [2]; 22.4 µM (inactive) in test [3]; 38.7 µM (inactive) in [4]; > 100 µM (inactive) in test [5]; 7.35 µM (inactive) in test [6]. Also, the GI50 was 22.9 µM (inactive) in [7]; > 10 µM (inactive) in test [8]; 29.7 µM (inactive) in [9]; 19.1 µM (inactive) in [10]; 89.7 µM (inactive) in [11]; 18.6 µM (inactive) in [12]. For the same compound, the GI50 in [13] is 14.9 µM (inactive); in [14], 42.9 µM (inactive); in test [15], 11.1 µM (inactive); in [16], 5.6 µM (inactive); in test [17] it was 21.6 µM (inactive); in test [18], 15.6 µM (inactive). The GI50 in [19] was 96.2 µM (inactive); in test [20], 39.7 µM (inactive).

On to `Oc1ccc(Cl)cc1Cc1cc(Cl)cc(Cc2cc(Cl)ccc2O)c1O`, for which the GI50 in test [1] is 2.9 µM (inactive); in test [2], 2.45 µM (inactive); in test [3], 1.64 µM (inactive); in test [4], 3.43 µM (inactive); in test [5], 2.04 µM (inactive); in test [6], 2.28 µM (inactive). For the same compound, the GI50 in test [7] is 2.21 µM (inactive); in test [8], 0.91 µM (active); in [9] it was 1.26 µM (inactive); in test [10], 2.83 µM (inactive); in [11], 2.72 µM (inactive); in test [12] it was 2.66 µM (inactive). For the same compound, the GI50 in test [13] is 1.63 µM (inactive); in test [14] it was 2.29 µM (inactive); in [15] it was 1.77 µM (inactive); in test [16], 2.01 µM (inactive); in test [17], 2.24 µM (inactive); in [18], 1.11 µM (active). Besides, the GI50 was 2.33 µM (inactive) in test [19] and 3.24 µM (inactive) in test [20].

Take `CC(C)OP(=O)(OC(C)C)/C(C#N)=C/c1c[nH]c2ccccc12`: the GI50 was > 100 µM (inactive) in [1]; 67.6 µM (inactive) in [2]; > 100 µM (inactive) in [3]; 54.6 µM (inactive) in test [4]; 21.7 µM (inactive) in [5]; > 100 µM (inactive) in [6]. Besides, the GI50 in [7] was 28.7 µM (inactive); in [8] it was > 100 µM (inactive); in test [9] it was 36.8 µM (inactive); in [10], 86.5 µM (inactive); in [11], > 100 µM (inactive); in test [12] it was > 100 µM (inactive). For the same compound, the GI50 in [13] was > 100 µM (inactive); in test [14] it was 86.3 µM (inactive); in [15], > 100 µM (inactive); in test [16], 54.3 µM (inactive); in [17] it was 34 µM (inactive); in test [18], 51.3 µM (inactive). Besides, the figures for the GI50 in test [19] and in [20] were 48.9 µM (inactive) and > 100 µM (inactive), respectively.

With `NC(=O)ON=C1CCN(Cc2ccccc2)CC1`, the GI50 in test [1], in test [2], in test [3], in test [4], in test [5] and in test [6] was > 100 µM (inactive) throughout. Also, the GI50 in test [7] was > 100 µM (inactive); in test [8], > 100 µM (inactive); in test [9], > 100 µM (inactive); in test [10], > 100 µM (inactive); in test [11] it was 29.9 µM (inactive); in test [12], > 100 µM (inactive). Also, the GI50 in [13], in test [14], in test [15], in test [16], in [17] and in [18] was > 100 µM (inactive) each time. For the same compound, the GI50 in [19] and in test [20] was > 100 µM (inactive) each time.
